Measured values published in patent publication US20010053797A1 (priority 1998, published 2001).
“Also recorded” adds a separate entry of the source. Where two headings read alike, the source gives them in different places.

Tests used:
[1] = system: cortical neurons and glia; test: Chemical hypoxia (azide) and glucose deprivation in cortical cell cultures, medium LDH; assay type: cell-based, Swiss Webster mice; settings: for effect on azide neurotoxicity in glucose-free buffer (neuronal death): 3 mM azide 30 min with compound, LDH 21-25 h later; for effect on potentiation of azide toxicity/glucose deprivation by GSH: 3 mM azide plus 100 μM GSH plus compound; for effect on potentiation of azide toxicity/glucose deprivation by GSH / effect on potentiation of azide toxicity by mercaptoethanol: 30 min; for effect on potentiation of azide toxicity by mercaptoethanol: 3 mM azide plus 100 μM mercaptoethanol plus compound
Procedure: Primary cultures containing both cortical neurons and glia were prepared from gravid Swiss Webster mice as previously described. (Regan , R. F. and Choi, D. W., The effect of NMDA, AMPA/kainate, and calcium channel antagonists on traumatic cortical neuronal injury in culture, Brain Res, 633: 236-242, 1994). Plating medium consisted of Eagle's minimal essential medium (MEM), 5% equine serum, 5% fetal bovine serum, 2 mM glutamine, and 23 mM glucose. Cultures were incubated in 5% CO2 at 37° C. Two-thirds of the culture medium was exchanged twice weekly with MEM containing 10% equine serum, 2 mM glutamine, and 23 mM glucose. Glial cell division was inhibited at 4-7 days in vitro with 10^−5 M cytosine arabinoside.
Chemical hypoxia was induced with 3 mM azide, which unlike cyanide is not volatile and has little effect on copper-zinc and manganese superoxide dismutases at low millimolar concentrations. (Misra, H. P. and Fridovich, I., Inhibition of superoxide dismutases by azide, Arch Biochem Biophys 189: 317-322, 1978). Experiments were conducted at 13-16 days in vitro in a glucose-free buffer containing 116 mM NaCl, 5.4 mM KCl, 1.8 mM CaCl2, 1 mM NaH2PO4, 26.2 mM NaHCO3, 0.8 mM MgSO4, and amino acids (MEM amino acids, Sigma Chemical Co., St. Louis, Mo., U.S.A.). After incubation for 30-90 min at 37° C. in 5% CO2, cultures were washed into MEM containing 10 mM glucose and were returned to the incubator.
Cell death was estimated 21-25 h after azide exposure by inspection under phase-contrast microscopy, and was quantified by assaying lactate dehydrogenase (LDH) activity in the medium, as previously described. (Regan, R. F. and Panter, S. S., Traumatic neuronal injury in cortical cell culture is attenuated by 21-aminosteroids, Brain Res, 682: 144-150, 1995). Medium LDH in this culture system is an accurate marker of neuronal death that correlates well with cell counts. (Koh, J. Y. and Choi, D. W., Vulnerability of cultured cortical neurons to damage by excitotoxins: Differential susceptibility of neurons containing NADPH-diaphorase, J Neurosci 8: 2153-2163, 1988). […] (Koh, J. Y. and Choi, D. W., 1988). The LDH activity in the medium of sister cultures exposed to sham wash alone was subtracted from all values to obtain the LDH signal associated specifically with neurotoxin exposure.
Data were analyzed by one-way analysis of variance. Differences between groups and a single mean were assessed with the Dunnett multiple comparisons test; when groups were compared to more than one mean, the Tukey-Kramer post hoc test was used.

[2] = system: murine cortical cell cultures (neurons), NMDA receptor; test: NMDA neurotoxicity in murine cortical cell cultures, medium LDH; assay type: cell-based, Swiss Webster mice; settings: for LDH release: scaled to 300 μM NMDA (=100); for effect on potentiation of NMDA neurotoxicity by mercaptoethanol: NMDA plus 1 mM mercaptoethanol plus equimolar compound; for effect on NMDA neurotoxicity (neuronal death, medium LDH): compound added with low micromolar NMDA, 20-25 h; for effect on potentiation of NMDA neurotoxicity by GSH: NMDA plus GSH plus compound
Procedure: Cultures were incubated in 5% CO2 at 37° C.
Experiments were conducted at 13-15 days in vitro.

[3] = system: murine cortical cell cultures (neurons), AMPA and kainate receptors; settings: listed as reduced glutathione
Procedure: (§1) After halothane anesthesia and cervical dislocation, cortical hemispheres were removed and incubated in 0.075% (wt/vol) acetylated trypsin (Sigma T-6763) for 1 h at 37° C. Tissue was dissociated by multiple passages through a narrow bore (flamed) Pasteur pipette, and the cell suspension was plated on confluent glial cultures at a density of 2.25-2.5 hemispheres per 24 well plate.
(§2) Experiments were conducted at 13-15 days in vitro. Cultures were exposed to excitatory amino acids in serum-free MEM containing 10 mM glucose.
Since astrocytes are not vulnerable to excitotoxic injury in this culture system (Choi D. W., Maulucci-Gedde M. and Kriegstein A. R. Glutamate neurotoxicity in cortical cell culture. J Neurosci 7: 357-368, 1987), the contribution of astrocytic LDH to the LDH signal is negligible.
Differences between groups were assessed with the Tukey-Kramer or Dunnett post hoc tests.

[4] = target: T1, native NMDA receptor (Rattus norvegicus, UniProt P35439); settings: cited from earlier work
T1 construct: host or cells: cultured forebrain, cortical or retinal neurons (endogenous receptor)

[5] = system: NMDA receptor-mediated neurotoxicity; settings: cited from earlier work
[6] = system: NR1-NR2B, -NR2C, or -NR2D receptors; settings: millimolar concentrations of GSH; cited from earlier work
[7] = system: cultured cerebellar granule cells; settings: cited from earlier work
[8] = system: GSH binding sites; settings: cited from earlier work
[9] = system: cortical cell culture; settings: low micromolar concentrations; cited from earlier work
[10] = system: murine cortical cell cultures; settings: millimolar concentrations, 20-25 h, 0 μM NMDA
Procedure: as §1, §2

O[C@H](CS)[C@H](O)CS (racemic) [dithiothreitol]
effect on azide neurotoxicity in glucose-free buffer (neuronal death) [1]: concentration-toxicity profile that was similar to GSH

N[C@@H](CCC(=O)N[C@@H](CS)C(=O)NCC(=O)O)C(=O)O [GSH, glutathione]
LDH release ([2]; 8 μM NMDA plus GSH): 61.09±3.83% | effect on neuronal death at high NMDA concentration ([2]; 24 μM NMDA): not altered | effect on potentiation of NMDA neurotoxicity by mercaptoethanol [2]: did not further increase neuronal death; also recorded: tended to inhibit the effect of mercaptoethanol; also recorded: did not further enhance NMDA neurotoxicity | effect on potentiation of NMDA neurotoxicity by mercaptoethanol ([2]; listed as reduced glutathione): did not further increase NMDA-induced neuronal death | effect on NMDA neurotoxicity (neuronal death, medium LDH) [2]: selectively potentiates NMDA neurotoxicity; also recorded: markedly potentiated; also recorded: specifically potentiated NMDA neurotoxicity; also recorded: selectively potentiate | effect on NMDA neurotoxicity (neuronal death, medium LDH) ([2]; listed as glutathione): marked potentiation | effect on NMDA neurotoxicity (neuronal death, medium LDH) ([2]; listed as reduced glutathione): markedly enhanced; also recorded: markedly enhance the vulnerability | effect on neurotoxicity of kainic acid [3]: unaffected | effect on native NMDA receptor responses [4]: no effect | effect on NMDA neurotoxicity [5]: attenuated NMDA neurotoxicity | effect on responses to glutamate (whole cell currents) [6]: not | basal 45Ca2+ influx [7]: did not alter | glutamate and NMDA-induced calcium influx [7]: increased

C[C@]12N[C@H](Cc3ccccc31)c1ccccc12 [MK-801]
LDH release ([2]; 8 μM NMDA plus GSH plus MK-801): −1.24±1.58% | cell death due to 8 μM NMDA plus GSH ([2]; 8 μM NMDA plus GSH plus compound): completely blocked | effect on potentiation of azide toxicity/glucose deprivation by GSH [1]: blocked

NS(=O)(=O)c1cccc2c1c([N+](=O)[O-])cc1[nH]c(=O)c(=O)[nH]c12 [NBQX, 1,2,3,4-tetrahydro-6-nitro-2,3-dioxo-benzo[f]quinoxaline-7-sulfonamide]
effect on potentiation of azide toxicity/glucose deprivation by GSH [1]: not and no effect

CN[C@H](CC(=O)O)C(=O)O [NMDA, N-methyl-D-aspartate]
neuronal death by NMDA ([2]; 24 μM NMDA): widespread neuronal death | neuronal death by NMDA ([2]; 300 μM NMDA, sister cultures (=100)): essentially complete neuronal death without injuring glia

CCCCCCSC[C@H](NC(=O)CC[C@H](N)C(=O)O)C(=O)NCC(=O)O [SHG, S-hexylglutathione]
effect on potentiation of NMDA neurotoxicity by (sulfhydryl) reducing agents [2]: antagonized | effect on potentiation of NMDA neurotoxicity by mercaptoethanol [2]: blocked the effect of mercaptoethanol | effect on potentiation of NMDA neurotoxicity by mercaptoethanol ([2]; listed as S-hexylglutathione): completely blocked | effect on potentiation of NMDA neurotoxicity by GSH [2]: completely blocked | effect on potentiation of NMDA neurotoxicity by GSH ([2]; listed as S-hexylglutathione): completely blocked; also recorded: antagonized the effect of GSH | effect on NMDA neurotoxicity (neuronal death, medium LDH) [2]: no significant effect; also recorded: did not attenuate NMDA neurotoxicity per se | effect on NMDA neurotoxicity (neuronal death, medium LDH) ([2]; listed as S-hexylglutathione): inactive per se | effect on potentiation of NMDA neurotoxicity by (sulfhydryl) reducing agents ([2]; listed as S-hexylglutathione): blocked the potentiation | effect on azide neurotoxicity in glucose-free buffer (neuronal death) [1]: ineffective | effect on azide neurotoxicity in glucose-free buffer (neuronal death) ([1]; listed as S-hexylglutathione): not increased | effect on potentiation of azide toxicity/glucose deprivation by GSH [1]: attenuates | effect on potentiation of azide toxicity by mercaptoethanol [1]: attenuates | neuroprotection against azide plus GSH or mercaptoethanol ([1]; compound at 1-3 mM): decreasing neuronal death moderately | effect on glutathione binding ([8]; listed as S-hexylglutathione): displace glutathione binding; also recorded: selectively inhibited

CSC[C@H](NC(=O)CC[C@H](N)C(=O)O)C(=O)NCC(=O)O [SMG, S-methylglutathione]
effect on potentiation of NMDA neurotoxicity by (sulfhydryl) reducing agents [2]: blocked the potentiation | effect on potentiation of NMDA neurotoxicity by GSH [2]: blocks the potentiation; also recorded: completely blocked; also recorded: antagonized the effect of GSH | effect on NMDA neurotoxicity (neuronal death, medium LDH) [2]: inactive per se | effect on glutathione binding [8]: displace glutathione binding

CCN(CC)c1ccc(N(CC)CC)c(N2CCN(CC(=O)[C@H]3[C@H](C)C[C@H]4[C@@H]5CCC6=CC(=O)C=C[C@]6(C)C5=CC[C@@]43C)CC2)n1.Cl [U74500A]
effect on potentiation of NMDA neurotoxicity by GSH [2]: GSH also potentiated injury in the presence | effect on hemoglobin toxicity [9]: blocks hemoglobin toxicity

[N-]=[N+]=[N-] [azide]
toxicity of azide alone ([1]; 3 mM azide in glucose-free medium, 30 minutes): tolerated by most neurons

N[C@@H](CS)C(=O)O [cysteine]
effect on glutathione binding [8]: selectively inhibited

N[C@@H](CCC(=O)O)C(=O)O [glutamate]
effect on glutathione binding [8]: not

oxidized glutathione [GSSG]
effect on potentiation of NMDA neurotoxicity by (sulfhydryl) reducing agents [2]: antagonized | effect on potentiation of NMDA neurotoxicity by mercaptoethanol [2]: completely blocked; also recorded: blocked the effect of mercaptoethanol | effect on potentiation of NMDA neurotoxicity by mercaptoethanol ([2]; listed as oxidized glutathione): blocked | effect on NMDA neurotoxicity (neuronal death, medium LDH) [2]: no significant effect; also recorded: did not attenuate NMDA neurotoxicity per se | effect on azide neurotoxicity in glucose-free buffer (neuronal death) [1]: ineffective; also recorded: not increased | effect on potentiation of azide toxicity/glucose deprivation by GSH [1]: most neurons have survived; also recorded: attenuates | effect on potentiation of azide toxicity by mercaptoethanol [1]: attenuates | effect on neuronal death induced by prolonged azide exposure ([1]; azide 60-90 min in the absence of GSH): no significant effect | neuroprotection against azide plus GSH or mercaptoethanol ([1]; compound at 1-3 mM): robust effect | neuroprotection against azide plus GSH or mercaptoethanol ([1]; equimolar compound (100 μM)): weak and somewhat variable neuroprotection | toxicity of compound alone [10]: nontoxic | effect on native NMDA receptor responses [4]: inhibitory | effect on NMDA neurotoxicity [5]: attenuated NMDA neurotoxicity

B1: catalase: catalase, added at a concentration sufficient to inhibit the neurotoxicity of the pro-oxidant hemoglobin (protein, UniProt P00432 2-527, looked up)
Catalase: ADNRDPASDQMKHWKEQRAAQKPDVLTTGGGNPVGDKLNSLTVGPRGPLLVQDVVFTDEMAHFDRERIPERVVHAKGAGAFGYFEVTHDITRYSKAKVFEHIGKRTPIAVRFSTVAGESGSADTVRDPRGFAVKFYTEDGNWDLVGNNTPIFFIRDALLFPSFIHSQKRNPQTHLKDPDMVWDFWSLRPESLHQVSFLFSDRGIPDGHRHMNGYGSHTFKLVNANGEAVYCKFHYKTDQGIKNLSVEDAARLAHEDPDYGLRDLFNAIATGNYPSWTLYIQVMTFSEAEIFPFNPFDLTKVWPHGDYPLIPVGKLVLNRNPVNYFAEVEQLAFDPSNMPPGIEPSPDKMLQGRLFAYPDTHRHRLGPNYLQIPVNCPYRARVANYQRDGPMCMMDNQGGAPNYYPNSFSAPEHQPSALEHRTHFSGDVQRFNSANDDNVTQVRTFYLKVLNEEQRKRLCENIAGHLKDAQLFIQKKAVKNFSDVHPEYGSRIQALLDKYNEEKPKNAVHTYVQHGSHLSAREKANL
effect on potentiation of NMDA neurotoxicity by GSH [2]: No effect was observed
